Source: BigSolDB 2.1

NC(=O)CS(=O)C(c1ccccc1)c1ccccc1 (stereo not given)
Conditions	solubility (mole fraction)
in 2-butanone, 281 K	0.00114
in 2-butanone, 304.7 K	0.00253
in 2-butanone, 307.3 K	0.00278
in 2-butanone, 314.1 K	0.00354
in 2-butanone, 317.8 K	0.00401
in 2-butanone, 319.6 K	0.00429
in 2-butanone, 329.4 K	0.0059
in 2-butanone, 332.8 K	0.00661
in DMF, 280.7 K	0.0552
in DMF, 283.3 K	0.0579
in DMF, 290.8 K	0.0656
in DMF, 293.6 K	0.0702
in DMF, 300.1 K	0.0784
in DMF, 311.5 K	0.0926
in DMF, 318 K	0.103
in DMF, 320.4 K	0.108
in acetone, 278.2 K	0.00141
in acetone, 284 K	0.00175
in acetone, 290.4 K	0.0021
in acetone, 294.1 K	0.00239
in acetone, 303.2 K	0.00321
in acetone, 307.5 K	0.00371
in acetone, 311.8 K	0.00426
in acetone, 320.2 K	0.0057
in acetonitrile, 286.3 K	0.000684
in acetonitrile, 293.1 K	0.000981
in acetonitrile, 297.9 K	0.00132
in acetonitrile, 301.4 K	0.00163
in acetonitrile, 304.4 K	0.00195
in acetonitrile, 311.1 K	0.00292
in acetonitrile, 322 K	0.00578
in acetonitrile, 326.4 K	0.00729
in ethanol, 280.6 K	0.000668
in ethanol, 285.2 K	0.000755
in ethanol, 288.4 K	0.000917
in ethanol, 294.2 K	0.00111
in ethanol, 304.2 K	0.00167
in ethanol, 313.7 K	0.00253
in ethanol, 322.8 K	0.00377
in ethanol, 330 K	0.00527
in ethyl acetate, 273.2 K	0.00046
in ethyl acetate, 288 K	0.000602
in ethyl acetate, 291.9 K	0.000709
in ethyl acetate, 298 K	0.000844
in ethyl acetate, 303.5 K	0.001
in ethyl acetate, 312.3 K	0.00141
in ethyl acetate, 322.2 K	0.002
in ethyl acetate, 328.3 K	0.00255
in isopropanol, 283.2 K	0.000603
in isopropanol, 287.9 K	0.00086
in isopropanol, 295.8 K	0.00106
in isopropanol, 299.8 K	0.00129
in isopropanol, 308.5 K	0.00193
in isopropanol, 317.6 K	0.00291
in isopropanol, 323.5 K	0.00388
in isopropanol, 331.5 K	0.00607
in methanol, 277.9 K	0.00189
in methanol, 289 K	0.0028
in methanol, 297.5 K	0.00394
in methanol, 301.8 K	0.00459
in methanol, 308.4 K	0.0059
in methanol, 314 K	0.00744
in methanol, 318.2 K	0.00891
in methanol, 319.7 K	0.00945
in n-propanol, 284.5 K	0.001
in n-propanol, 291.9 K	0.00131
in n-propanol, 299 K	0.00184
in n-propanol, 300.4 K	0.00195
in n-propanol, 314.3 K	0.00362
in n-propanol, 316.9 K	0.00411
in n-propanol, 319.9 K	0.00475
in n-propanol, 324.8 K	0.00585
in water, 290.7 K	5.4e-05
in water, 297.5 K	8.1e-05
in water, 300.5 K	8.8e-05
in water, 301.7 K	0.000103
in water, 309.5 K	0.00013
in water, 312.9 K	0.000177
in water, 320.8 K	0.000242
in water, 323.4 K	0.000281
